# Patent US20250281466A1, “USE OF CLOPIDOGREL OR COMBINATIONS THEREOF TO TREAT AMYOTROPHIC LATERAL SCLEROSIS, DAMAGES CAUSED BY THE NORMAL AGING PROCESS, NERVE INJURIES, MUSCULAR DYSTROPHY, STRENUOUS PHYSICAL ACTIVITIES AND OTHER CONDITIONS THAT AFFECT SYNAPSES AS WELL AS SKELETAL MUSCLES” (Brown University, priority 2024, published 2025)
# Where two headings read alike, the source gives them in different places.
# Tests used:
# [1] = tested on: mouse model of ALS
# Excerpt: FIGS. 11A-11F provide a summary of Clopidogrel treatment on mouse model of ALS. FIG. 11A (control) and FIG. 11B provide images showing neuromuscular junctions (NMJs) treated with vehicle (control) and Clopidogrel. Blue depicts axons and Magenta muscle region in contact with motor axons.
# FIGS. 11A-11F provide a summary of Clopidogrel treatment on a mouse model of ALS. FIG. 11A (control, left) and FIG. 11B (Clopidogrel, right) provide images showing neuromuscular junctions (NMJs) treated with vehicle (control, left) and Clopidogrel (right). Blue (or grey in upper panels) depicts axons and Magenta (grey in lower panels) muscle region in contact with motor axons.
# [2] = tested on: mice; settings: general statement before a planned dose pilot study; cited from earlier work
# [3] = general statement, no test described; cited from earlier work
# [4] = tested on: SOD1^G93A mice; settings: P120 SOD1^G93A mice
# Excerpt: In FIGS. 4A-4H, DigiGait™ was used for gate analysis of P120 SOD1^G93A mice treated with Vehicle or the P2Y12 antagonist Clopidogrel. […] Scale bar=10 μm.
# To this end, before sacrificing mice for histological analysis, we examined the gait patterns of SOD1^G93A mice treated with Clopidogrel and vehicle using the DigiGait™ system.
# [5] = tested on: SOD1^G93A mice; settings: SOD1^G93A mice examined at 15 and 30 days after treatment starting at 90 days of age, compared to vehicle (FIG. 5B)
# Description: NeuroScore involved observing the ability of mice to control the position and mobility of both hindlimbs independently of each other. In this 0-4 point scoring system, 0 represents normal control and 4 represents complete loss of the ability to command hindlimb movement (FIG. 5A).
# We also assessed disease progression in mice using the neurological scoring system (NeuroScore) which is used to determine disease stage in SOD1^G93A mice. NeuroScore involved observing the ability of mice to control the position and mobility of both hindlimbs independently of each other. In this 0-4 point scoring system, 0 represents normal control and 4 represents complete loss of the ability to command hindlimb movement (for example, see FIG. 5A).
# [6] = tested on: SOD1^G93A mice; settings: EDL of P120 SOD1^G93A mice, versus vehicle, *p<0.05, n=7-8
# Description: (§1) We treated SOD1^G93A mice with either vehicle or Clopidogrel (1 mg/kg) for 30 days starting at symptom onset (90 days old). […] The EDL and TA are hindlimb muscles mostly composed of fast-twitch fibers that play similar function in leg movement. These muscles are adjacent to each other and are affected early in ALS38.
# Discussion of Research Design (current) and Experimental Methods: Currently Disclosed Aim 1A: Identify the optimal Clopidogrel dose to protect NMJs from ALS.
# [7] = tested on: SOD1^G93A mice; settings: Clopidogrel 1 mg/kg for 30 days from 90 days old, versus vehicle (FIG. 3C)
# Description: as §1
smiles,measurement,setting,value
COC(=O)[C@H](c1ccccc1Cl)N1CCc2sccc2C1 [Clopidogrel],intactness of muscle regions in contact with motor axons (NMJ),"[1]; versus vehicle control (FIG. 11C, 11E)",more intact
same,number of denervated NMJs,"[1]; versus vehicle control (FIG. 11D, 11F)",reduces the number of denervated NMJs
same,side effects in mice,[2],"lethargy, weight loss and internal bleeding"
same,crossing of the blood-brain-barrier (BBB),[3],does not cross the blood-brain-barrier
same,stride frequency (DigiGait),"[4]; compared to vehicle, n=3-5 (FIG. 4A, 4B)",increases stride frequency
same,swing duration (DigiGait),"[4]; compared to vehicle, n=3-5 (FIG. 4C, 4D)",reduces swing duration
same,percent brake of stride (DigiGait),"[4]; forelimb and hindlimb, versus vehicle (FIG. 4G, 4H)",increased
same,brake time (DigiGait),"[4]; versus vehicle (FIG. 4E, 4F)",increased the brake time
same,disease progression by NeuroScore (0-4 point scoring system),[5],the disease progressed slower
same,"fully denervated NMJs (analysis of NMJ innervation, FIG. 3B)",[6],fewer fully denervated NMJs
same,TA muscle mass,[7],significantly preserved the overall mass of the tibialis anterior (TA) muscle
same,TA muscle mass,[7]; listed as clopidogrel,higher TA muscle mass
